Read-outs that look alike come from different tables or passages of the source. Some results are limits rather than exact numbers.

The test system of test [1] is HCV replicon D168A variant in Huh7 cells. Briefly: microbe, parasite or virus in culture. The settings on record: for Replicon EC50 (Fold change) D168A: Table 9, relative to WT. In kind it is cell-based, Hepatitis C virus. An outline of the steps: (§1)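 Huh7, electroporated w/ Con1 (gt1b) luc replicon RNA carrying H77 (gt1a) NS3; mutants by site-directed mutagenesis. Increasing PI concentrations; luciferase (RLU) read 96 h post-electroporation.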
(In general: In antiviral work, replicon cells carry a viral genome segment that copies itself.)

The subject of test [2] is HCV replicon A156T variant in Huh7 cells. Briefly: microbe, parasite or virus in culture. In kind it is cell-based, Hepatitis C virus. The conditions noted are these: for EC50: Hepatitis C virus, Huh-7, read-out: Replicon EC50 (nM) A156T, Table 9; for Replicon EC50 (Fold change) A156T: Table 9, relative to WT. The method, boiled down:
as §1

The subject of test [3] is HCV replicon R155K variant in Huh7 cells. Briefly: microbe, parasite or virus in culture. The settings on record: for EC50: Hepatitis C virus, Huh-7, read-out: Replicon EC50 (nM) R155K, Table 9; for Replicon EC50 (Fold change) R155K: Table 9, relative to WT. In kind it is cell-based, Hepatitis C virus. An outline of the steps: as §1
The test system of test [4] is wild-type HCV replicon in Huh7 cells. Briefly: Cell-based drug susceptibility (replicon) assay, wild-type. The conditions noted are these: Hepatitis C virus, Huh-7, Table 9; read-out: Replicon EC50 (nM) WT. The method, boiled down: as §1
Test [5] has as its system HCV replicon D168V variant in Huh7 cells. Description: microbe, parasite or virus in culture. In kind it is cell-based, Hepatitis C virus. The conditions noted are these: for Replicon EC50 (Fold change) D168V: relative to WT. An outline of the steps: as §1
Test [6] has as its target GT1a R155K NS3/4A protease. Format: biochemical, Hepatitis C virus. The conditions noted are these: fold change in Ki, R155K relative to WT. The procedure:
(§2) For each assay, 2 nM of NS3/4A protease (GT1a, R155K and D168A) was pre-incubated at room temperature for 1 h with increasing concentration of inhibitors in assay buffer (50 mM Tris, 5% glycerol, 10 mM DTT, 0.6 mM LDAO, and 4% dimethyl sulfoxide, pH 7.5). Inhibition assays were performed in non-binding surface 96-well black half-area plates (Corning) in a reaction volume of 60 μL. […] Three independent data sets were collected for each inhibitor with each protease construct. […] Gibbs free energy of binding was calculated using the following equation: ΔG=RTlnKi

Test [7] addresses GT1a R155K NS3/4A protease (UniProt P27958, R1181K, species not given). Format: biochemical, Hepatitis C virus. The procedure: as §2
In test [8] the target is T1, wild-type GT1a NS3/4A protease (UniProt P27958).
T1 construct: Ki WT; other: wild-type HCV NS3/4A protease
Format: biochemical, Hepatitis C virus. An outline of the steps:
(§3)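 NS3/4A protease (2 nM; wild-type GT1a or D168A) pre-incubated 1 h at room temperature with increasing inhibitor in 50 mM Tris pH 7.5, 5% glycerol, 10 mM DTT, 0.6 mM LDAO, 4% DMSO. Ki from three independent data sets per construct; ΔG=RTlnKi.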

Test [9] addresses T2, GT1a D168A NS3/4A protease (UniProt P27958, D1194A, species not given).
T2 construct: rows headed: Ki (nM) D168A; Ki D168A; other: D168A variant
In kind it is biochemical, Hepatitis C virus. The method, boiled down: as §3

Test [10] concerns the target GT1a D168A NS3/4A protease. Format: biochemical, Hepatitis C virus. The conditions noted are these: fold change in Ki, D168A relative to WT. The method, boiled down:
as §3

Where [11] appears, read: Hepatitis C virus, Huh-7, read-out: Replicon EC50 (nM) D168V, Table 9.
Setting [12] is: read-out: Ki (nM) R155K, Table 8, linear inhibitors.
Setting [13] is: read-out: Ki R155K, R155K variant.
Where [14] appears, read: read-out: Ki (nM) WT, Table 8, linear inhibitors.
The mark [15] stands for this setting: read-out: Ki WT, wild-type HCV NS3/4A protease.
The mark [16] stands for this setting: read-out: Ki (nM) D168A, Table 8, linear inhibitors.
Where [17] appears, read: read-out: Ki D168A, D168A variant.
[18] abbreviates: read-out: Replicon EC50 (nM) D168V, Table 9.

A word on the EC50: it is the concentration at which the effect is half-maximal. The Ki is a dissociation constant, usually derived from enzyme kinetics or from competition with a known ligand. Regarding `C=C[C@@H]1C[C@]1(NC(=O)[C@@H]1C[C@@H](Oc2nc3cc(OC)ccc3nc2CC)CN1C(=O)[C@@H](NC(=O)OC(C)(C)C)C(C)(C)C)C(=O)NS(=O)(=O)C1CC1` [Compound 3, tert-Butyl ((S)-1-((2S,4R)-2-(((1R,2S)-1-((cyclopropylsulfonyl)carbamoyl)-2-vinylcyclopropyl)carbamoyl)-4-((3-ethyl-7-methoxyquinoxalin-2-yl)oxy)pyrrolidin-1-yl)-3,3-dimethyl-1-oxobutan-2-yl)carbamate], the EC50 is > 500 nM in test [1] (Hepatitis C virus, Huh-7, read-out: Replicon EC50 (nM) D168A, Table 9); 73 nM in test [2]; 50 nM in [3]; 24 nM in test [4]; > 500 nM in test [5] (setting [11]). Also, in [1], the “Replicon EC50 (Fold change) D168A” value was “(>21) fold”. In [2], the “Replicon EC50 (Fold change) A156T” value is recorded as “(3.0) fold”. The “Replicon EC50 (Fold change) R155K” value in test [3] was “(2.1) fold”. Further, the “Replicon EC50 (Fold change) D168V” value in test [5] (Table 9) is listed as “(>21) fold”. Moreover, the “Ki R155K (fold change)” value in test [6] is on record as 0.9. Moreover, the Ki amounted to 17 ± 2.3 nM in [7] (setting [12]); 17 ± 2.3 nM in [7] (setting [13]); 19 nM in test [8] (setting [14]); 19 ± 2.7 nM in test [8] (setting [15]); 642 ± 101 nM in test [9] (setting [16]); 642 ± 101 nM in test [9] (setting [17]). Moreover, the “Ki D168A (fold change)” value in [10] was 34.

Consider `C=C[C@@H]1C[C@]1(NC(=O)[C@@H]1C[C@@H](Oc2nc3cc(OC)ccc3nc2Cl)CN1C(=O)[C@@H](NC(=O)OC(C)(C)C)C(C)(C)C)C(=O)NS(=O)(=O)C1CC1` [Compound 9d, tert-Butyl ((S)-1-((2S,4R)-4-((3-chloro-7-methoxyquinoxalin-2-yl)oxy)-2-(((1R,2S)-1-((cyclopropylsulfonyl)carbamoyl)-2-vinylcyclopropyl)carbamoyl)pyrrolidin-1-yl)-3,3-dimethyl-1-oxobutan-2-yl)carbamate], for which, in [1], the “Replicon EC50 (Fold change) D168A” value is on record as “(5.8) fold”. Moreover, the EC50 was 107 nM in test [2]; 10 nM in [3]; 6.6 nM in test [4]; 12 to 38 nM in test [5] (setting [11]); 12 nM in test [5] (setting [18]). The “Replicon EC50 (Fold change) A156T” value in test [2] is listed as “(16) fold”. Further, the “Replicon EC50 (Fold change) R155K” value in test [3] is reported as “(1.5) fold”. The “Replicon EC50 (Fold change) D168V” value in [5] (Table 9) is “(1.8) fold”. Besides, in test [6], the “Ki R155K (fold change)” value was found to be 0.3. Besides, the Ki worked out at 2.2 ± 0.4 nM in [7] (setting [12]); 2.2 ± 0.4 nM in [7] (setting [13]); 7.8 ± 1.1 nM in [8] (setting [14]); 7.8 ± 1.1 nM in test [8] (setting [15]); 128 ± 16 nM in test [9] (setting [16]); 128 ± 16 nM in [9] (setting [17]). The “Ki D168A (fold change)” value in test [10] is reported as 16.

Turning to `C=C[C@@H]1C[C@]1(NC(=O)[C@@H]1C[C@@H](Oc2nc3cc(OC)ccc3nc2Cl)CN1C(=O)[C@@H](NC(=O)OC(C)(C)C)C(C)(C)C)C(=O)NS(=O)(=O)C1(C)CC1` [Compound 10d, tert-Butyl ((S)-1-((2S4R)-4-((3-chloro-7-methoxyquinoxalin-2-yl)oxy)-2-(((1R,2SD)-1-(((1-methylcyclopropyl)sulfonyl)carbamoyl)-1-vinylcyclopropyl)carbamoyl)pyrrolidin-1-yl)-3,3-dimethyl-1-oxobutan-2-yl)carbamate], the “Replicon EC50 (Fold change) D168A” value in test [1] is “(4.8) fold”. The concentration for a half-maximal effect (EC50) in [2] was 100 nM; in [3], 10 nM; in [4] it was 6.3 nM; in [5] (setting [11]), 12 to 38 nM; in test [5] (setting [18]) it was 12 nM. For the same molecule, the “Replicon EC50 (Fold change) A156T” value in [2] is on record as “(16) fold”. Further, in [3], the “Replicon EC50 (Fold change) R155K” value is recorded as “(1.6) fold”. Further, in [5] (Table 9), the “Replicon EC50 (Fold change) D168V” value is “(1.9) fold”. Moreover, the “Ki R155K (fold change)” value in test [6] was 0.7. In addition, the Ki came to 3.8 ± 0.6 nM in test [7] (setting [12]); 3.8 ± 0.6 nM in test [7] (setting [13]); 6.1 ± 1.1 nM in test [8] (setting [14]); 6.1 ± 1.1 nM in test [8] (setting [15]); 119 ± 16 nM in [9] (setting [16]); 119 ± 16 nM in test [9] (setting [17]). In addition, the “Ki D168A (fold change)” value in test [10] is reported as 31.

`C=C[C@@H]1C[C@]1(NC(=O)[C@@H]1C[C@@H](Oc2nc3cc(OC)ccc3nc2C(F)(F)F)CN1C(=O)[C@@H](NC(=O)OC1CCCC1)C(C)(C)C)C(=O)NS(=O)(=O)C1CC1` [Compound 11e, Cyclopentyl ((S)-1-((2S,4R)-2-(((1R,2S)-1-((cyclopropylsulfonyl)carbamoyl)-2-vinylcyclopropyl)carbamoyl)-4-((7-methoxy-3-(trifluoromethyl)quinoxalin-2-yl)oxy)pyrrolidin-1-yl)-3,3-dimethyl-1-oxobutan-2-yl)carbamate]: in test [6], the “Ki R155K (fold change)” value came out at 0.8. Further, the Ki amounted to 26 ± 7.7 nM in test [7] (setting [12]); 26 ± 7.7 nM in test [7] (setting [13]); 34 ± 8.3 nM in test [8] (setting [14]); 34 ± 8.3 nM in test [8] (setting [15]); 703 ± 63 nM in test [9] (setting [16]); 703 ± 63 nM in test [9] (setting [17]). In addition, the “Ki D168A (fold change)” value in test [10] turned out to be 21.

As for `C=C[C@@H]1C[C@]1(NC(=O)[C@@H]1C[C@@H](Oc2nc3cc(OC)ccc3nc2CC)CN1C(=O)[C@@H](NC(=O)OC1CCCC1)C(C)(C)C)C(=O)NS(=O)(=O)C1(C)CC1` [Compound 12a, Cyclopentyl ((S)-1-((2S,4R)-4-((3-ethyl-7-methoxyquinoxalin-2-yl)oxy)-2-(((1R,2S)-1-(((1-methylcyclopropyl)sulfonyl)carbamoyl)-2-vinylcyclopropyl)carbamoyl)pyrrolidin-1-yl)-3,3-dimethyl-1-oxobutan-2-yl)carbamate], in test [6], the “Ki R155K (fold change)” value turned out to be 1.9. The inhibitory constant (Ki) in [7] (setting [12]) was determined as 13 ± 2.7 nM; in test [7] (setting [13]), 13 ± 2.7 nM; in test [8] (setting [14]), 6.9 nM; in test [8] (setting [15]), 6.9 ± 0.5 nM; in test [9] (setting [16]), 145 nM; in [9] (setting [17]), 145 ± 14 nM. Further, the “Ki D168A (fold change)” value in test [10] was 21.

As for `C=C[C@@H]1C[C@]1(NC(=O)[C@@H]1C[C@@H](Oc2nc3cc(OC)ccc3nc2C(C)C)CN1C(=O)[C@@H](NC(=O)OC1CCCC1)C(C)(C)C)C(=O)NS(=O)(=O)C1(C)CC1` [Compound 12c, Cyclopentyl ((S)-1-((2S,4R)-4-((3-isopropyl-7-methoxyquinoxalin-2-yl)oxy)-2-(((1R,2S)-1-(((1-methylcyclopropyl)sulfonyl)carbamoyl)-2-vinylcyclopropyl)carbamoyl)pyrrolidin-1-yl)-3,3-dimethyl-1-oxobutan-2-yl)carbamate], in [6], the “Ki R155K (fold change)” value is 2.0. The Ki was 43 ± 11 nM in test [7] (setting [12]); 43 ± 11 nM in [7] (setting [13]); 21 ± 2.6 nM in [8] (setting [14]); 21 ± 2.6 nM in test [8] (setting [15]); 1000 ± 80 nM in test [9] (setting [16]); 1000 ± 80 nM in test [9] (setting [17]). Besides, the “Ki D168A (fold change)” value in test [10] was 48.

For the molecule `C=C[C@@H]1C[C@]1(NC(=O)[C@@H]1C[C@@H](Oc2nc3cc(OC)ccc3nc2C(F)(F)F)CN1C(=O)[C@@H](NC(=O)OC1CCCC1)C(C)(C)C)C(=O)NS(=O)(=O)C1(C)CC1` [Compound 12e, Cyclopentyl ((S)-1-((2S,4R)-4-((7-methoxy-3-(trifluoromethyl)quinoxalin-2-yl)oxy)-2-(((1R,2S)-1-(((1-methylcyclopropyl)sulfonyl)carbamoyl)-2-vinylcyclopropyl)carbamoyl)pyrrolidin-1-yl)-3,3-dimethyl-1-oxobutan-2-yl)carbamate], the “Ki R155K (fold change)” value in test [6] was 1.0. The Ki in test [7] (setting [12]) is 22 ± 6.9 nM; in test [7] (setting [13]), 22 ± 6.9 nM; in [8] (setting [14]) it was 22 ± 3.4 nM; in test [8] (setting [15]), 22 ± 3.4 nM; in test [9] (setting [16]), 516 ± 61 nM; in [9] (setting [17]), 516 ± 61 nM. The “Ki D168A (fold change)” value in test [10] worked out at 24.

Values taken from patent US11472778B2, “Hepatitis C virus NS3/4A protease inhibitors” (priority 2017, dated 2022).
